# Experimental data: US4563453A, “Thiazine derivatives, processes for preparation thereof and pharmaceutical composition comprising the same” (Fujisawa Pharmaceutical Co., Ltd., priority 1983, dated 1986)
# Legend:
# [1] = test system: Arthus foot edema; assay: Arthus foot edema (paw edema in rats); type: in vivo, Male Sprague-Dawley rats; details: rat, oral, 100 mg/kg, 60 minutes before phlogogen; edema volume 3 hours after egg albumin i.v./anti egg albumin antiserum subplantar
# Procedure: TEST B (Arthus foot edema)
# Five male Sprague-Dawley rats weighing about 200 g were used per group.
# Paw edema was induced by intravenous injection of egg albumin (0.5 mg/rat) and subplantar injection of anti egg albumin antiserum (0.1 ml/rat) in Arthus type foot edema. The test drug was suspended in methylcellulose and administered orally 60 minutes before phlogogen. Paw volume was measured with plethysmometer (Ugo Basil Co., Ltd.) by water displacement immersing the paw to the lateral malleolus. The difference of paw volume before and 3 hours after the phlogogen was designated as edema volume. The data were analyzed statistically by student's t-test.
# [2] = test system: Carrageenin foot edema; assay: Carrageenin foot edema (paw edema in rats); type: in vivo, Male Sprague-Dawley rats; details: rat, oral, 10.0 mg/kg, 60 minutes before phlogogen; edema volume 3 hours after 1% carrageenin
# Procedure: TEST A (Carrageenin foot edema)
# Male Sprague-Dawley rats weighing about 200 g were used in groups of five. Paw edema was induced by subplantar injection of 1% carrageenin (0.1 ml/rat) into the right hind paw. The test drug was suspended in 0.5% methylcellulose and administered orally 60 minutes before phlogogen. Paw volume was measured with plethysmometer (Ugo Basil Co., Ltd.) by water displacement immersing the paw to the lateral malleolus. The difference of paw volume before and 3 hours after the phlogogen was designated as edema volume. The data was analyzed statistically by student's t-test.
SMILES,Inhibition (%) [1] [%],Inhibition (%) [2] [%]
"CN1C(C(=O)Nc2ccc(O)c(=O)cc2)=C(O)c2sccc2S1(=O)=O [4-Hydroxy-2-methyl-N-(2-hydroxy-1-oxo-2,4,6-cycloheptatrien-5-yl)-2H-thieno[2,3-e]-1,2-thiazine-3-carboxamide 1,1-dioxide]",37.8,–
"CN1C(C(=O)Nc2cccccc2=O)=C(O)c2sccc2S1(=O)=O [(a), 4-Hydroxy-2-methyl-N-(1-oxo-2,4,6-cycloheptatrien-2-yl)-2H-thieno[2,3-e]-1,2-thiazine-3-carboxamide 1,1-dioxide]",–,63.6
"CN1C(C(=O)Nc2cccccc2=O)=C(O)c2sc3ccccc3c2S1(=O)=O [(b), 4-Hydroxy-2-methyl-N-(1-oxo-2,4,6-cycloheptatrien-2-yl)-2H-[1]benzothieno[2,3-e]-1,2-thiazine-3-carboxamide 1,1-dioxide]",–,34
